Data taken from article PMC12176620, “Structure of the ATP-driven methyl-coenzyme M reductase activation complex” (Nature, 2025).
One block for each molecule: values may come before it.

Legend:
A2 component [1] = biological target: T1, A2 component (Methanococcus maripaludis, UniProt A0A2L1C9A1); test: mass photometry (stabilisation of the complex); assay type: binding; settings: 5 mM AMP-PNP, 20 mM Ti(III) citrate; indirect, through assembly of A2 with MCR
T1 construct: gene opuCA; with Methyl-coenzyme M reductase subunit alpha; Methyl-coenzyme M reductase subunit beta; Methyl-coenzyme M reductase subunit gamma; Methyl-coenzyme M reductase operon protein C; Methanogenesis marker protein 7; Methanogenesis marker protein 17; Methanogenesis marker protein 3; DUF2098 domain-containing protein

A2 component [2] = biological target: T1, A2 component; test: cryo-EM structure; assay type: binding; settings: two ATP with Mg ions, pre-hydrolytic state; sample incubated with 5 mM ATP
[3] = biological target: T2, MCR (McrABG core) in the MCR activation complex (Methanococcus maripaludis, UniProt A0A2L1CBB0+A0A2L1CBB3+A0A2L1CBG2); test: cryo-EM structure; assay type: binding
T2 construct: gene mcrA; native complex pulled down from M. maripaludis by genomic N-terminal Twin-Strep-tag on McrC; McrA with native post-translational modifications; with Methyl-coenzyme M reductase operon protein C; Methanogenesis marker protein 7; Methanogenesis marker protein 17; Methanogenesis marker protein 3; Methyl-coenzyme M reductase system component A2; DUF2098 domain-containing protein

[4] = biological target: methyl-coenzyme M reductase (MCR) core (Methanococcus maripaludis (endogenous in M. maripaludis JJ Δupt)) (UniProt Q6LWZ9); test: cryo-EM structure; single-particle analysis of the Strep-Tactin-purified MCR activation complex (1.2 mg/ml), vitrified anaerobically 'as isolated' (maps with A2 at 2.5 Å and without A2 at 2.7 Å) and after 30 min with 5 mM ATP and the CH4 reaction components except Ti(III) citrate (2.1 Å, locally 1.8 Å)

T2 sequence (A0A2L1CBB3 entry or part of it): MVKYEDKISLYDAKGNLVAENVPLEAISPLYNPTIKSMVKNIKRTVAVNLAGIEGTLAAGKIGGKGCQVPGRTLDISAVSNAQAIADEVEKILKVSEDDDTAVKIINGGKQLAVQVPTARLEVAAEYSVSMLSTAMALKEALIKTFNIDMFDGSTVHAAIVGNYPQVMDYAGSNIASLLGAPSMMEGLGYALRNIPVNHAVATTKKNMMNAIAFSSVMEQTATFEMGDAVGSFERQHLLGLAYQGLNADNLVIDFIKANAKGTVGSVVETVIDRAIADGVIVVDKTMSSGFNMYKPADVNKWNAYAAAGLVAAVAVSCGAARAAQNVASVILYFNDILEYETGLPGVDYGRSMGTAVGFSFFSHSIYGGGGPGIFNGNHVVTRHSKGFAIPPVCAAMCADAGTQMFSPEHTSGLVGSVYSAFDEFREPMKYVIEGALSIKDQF
T2 sequence (A0A2L1CBB0 entry or part of it): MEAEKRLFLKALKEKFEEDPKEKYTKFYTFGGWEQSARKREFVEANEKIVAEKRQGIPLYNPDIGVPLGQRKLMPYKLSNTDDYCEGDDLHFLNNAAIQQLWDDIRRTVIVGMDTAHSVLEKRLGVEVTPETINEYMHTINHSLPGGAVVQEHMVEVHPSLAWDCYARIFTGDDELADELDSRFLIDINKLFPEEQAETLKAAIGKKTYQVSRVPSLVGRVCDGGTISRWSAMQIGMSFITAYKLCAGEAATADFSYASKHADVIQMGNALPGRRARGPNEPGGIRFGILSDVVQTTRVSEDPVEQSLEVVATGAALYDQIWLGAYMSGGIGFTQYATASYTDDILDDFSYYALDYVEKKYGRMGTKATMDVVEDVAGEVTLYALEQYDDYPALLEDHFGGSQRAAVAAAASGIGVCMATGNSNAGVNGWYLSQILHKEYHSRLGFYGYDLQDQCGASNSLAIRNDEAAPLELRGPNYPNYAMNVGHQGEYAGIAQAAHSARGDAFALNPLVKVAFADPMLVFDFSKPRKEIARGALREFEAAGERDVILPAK
T2 sequence (A0A2L1CBG2 entry or part of it): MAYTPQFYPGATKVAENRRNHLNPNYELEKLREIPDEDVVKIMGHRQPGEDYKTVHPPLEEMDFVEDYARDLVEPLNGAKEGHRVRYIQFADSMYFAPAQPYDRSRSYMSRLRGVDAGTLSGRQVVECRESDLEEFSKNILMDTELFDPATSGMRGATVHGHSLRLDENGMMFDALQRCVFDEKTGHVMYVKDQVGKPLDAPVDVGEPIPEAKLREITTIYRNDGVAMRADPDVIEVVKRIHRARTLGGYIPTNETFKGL
T2 sequence (G0H3B1 entry or part of it, further chain): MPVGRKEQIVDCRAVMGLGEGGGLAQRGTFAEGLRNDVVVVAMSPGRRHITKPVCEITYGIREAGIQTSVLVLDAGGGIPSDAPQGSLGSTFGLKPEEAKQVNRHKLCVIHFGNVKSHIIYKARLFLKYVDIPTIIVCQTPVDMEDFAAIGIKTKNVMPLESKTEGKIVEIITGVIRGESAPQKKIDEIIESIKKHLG

Molecule: Nc1ncnc2c1ncn2[C@@H]1O[C@H](COP(=O)(O)OP(=O)(O)NP(=O)(O)O)[C@@H](O)[C@H]1O [AMP-PNP]
mass photometry (stabilisation of the complex) (A2 component [1]): A similar effect was observed when AMP-PNP, a non-hydrolysable ATP analogue, was used

Molecule: Nc1ncnc2c1ncn2[C@@H]1O[C@H](COP(=O)(O)OP(=O)(O)OP(=O)(O)O)[C@@H](O)[C@H]1O [ATP]
cryo-EM structure (A2 component [2]): Our structure revealed two ATP molecules and their coordinating Mg ions

Molecule: C[C@@H](OP(=O)(O)O)[C@H](NC(=O)CCCCCCS)C(=O)O [CoB–SH]
cryo-EM structure ([3]; distal active site): the phosphate moiety of CoB–SH was kept in place by the positively charged McrA residues

Molecule: C[C@@H](OP(=O)(O)O)[C@H](NC(=O)CCCCCCSSCCS(=O)(=O)O)C(=O)O [CoMS–SCoB]
cryo-EM structure ([3]; proximal active site, next to F430, sample incubated with ATP): In the proximal active site, we found the CoMS–SCoB heterodisulfide next to F430

occupancy of the A2 component, sample preincubated with 5 mM ATP (% of the particles) [4]: 92
percent of particles with the A2 component, sample 'as isolated' (% of particles) [4]: 58
B1: A2 component (natural protein)
chain: MLLLEVKNVSKSYGDTEVLKNVSFELNEGDVMGVLGRSGAGKSVLLHMLRGMEGYEPTSGQIIYHVAYCPHCENVEAPSQVGKKCECETEYVAKSVDFWNNNEITYALKKKIAIMLQRTFALYGEKTVAENIMEALTAAGYEGKDATEWALNLIKMVKLEHRVAHISRDLSGGEKQRVVLARQIAKNPVIFLADEPTGTLDPKTAKFVHNALTEAVIKHNIAMVITSHWPEVIEELCQKAIWLDKGEMRLVGESKHVVEEFMKTVTSMKEFEKVEVKDELLKLENVEKRYVSVDRGIVKAVDGIDVSINEKEIFGLVGVSGAGKTTLSKIIAAVIPPSKGNYEFRLADEWVDMTKVGPLYRGRAKRYIGMLFQEYSLYPHRTILYNLTESIGLEMPGEFAKMKAEHTLVSVGFTEEEAENMLEKHPSELSVGEKHRVALAQVLIREPHLILLDEPTGTMDPITRNQVAESIQKSRSELDQTYVIVSHDMDFVLNVCDRAALVRGGKIIKTGKPDEIVKILSEEEKDEMIGH
